# Results from patent US9302999B2, “Substituted triazoles as herbicides” (E. I. DU PONT DE NEMOURS AND COMPANY, priority 2012, dated 2016).
# Assays:
# Assay type in all cases: in vivo
# [1] = system: morningglory (Ipomoea spp.); assay: Test A pre-/postemergence: morningglory; conditions: for Morningglory plant response rating: Postemergence; for Plant response rating, Morningglory: Preemergence
# Method in brief: (§1)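 Pre: directed soil spray after planting in loam + sand. Post: same formulation (non-phytotoxic solvent + surfactant) on 1–2-leaf plants, 2–10 cm. Greenhouse ~10 d; visual injury 0–100 vs untreated.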
# [2] = system: sedge, umbrella (small-flower umbrella sedge, Cyperus difformis); assay: Test C flooded paddy test: sedge, umbrella; conditions: scale 0 to 100 (0 no effect, 100 complete control)
# Method in brief: (§2)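 Greenhouse plants treated at the 2-leaf stage by dosing the flood water (3 cm depth, maintained) were compared with controls after 13 to 15 days and rated 0 to 100, where 100 means complete control; a dash marks no test result.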
# [3] = system: wheat (Triticum aestivum); assay: Test A pre-/postemergence: wheat; conditions: for Wheat plant response rating: Postemergence; for Plant response rating, Wheat: Preemergence
# Method in brief: as §1
# [4] = system: barnyardgrass (Echinochloa crus-galli); assay: Test A pre-/postemergence: barnyardgrass; conditions: for Barnyardgrass plant response rating: Postemergence; for Plant response rating, Barnyardgrass: Preemergence
# Method in brief: as §1
# [5] = system: barnyardgrass (Echinochloa crus-galli); assay: Test C flooded paddy test: barnyardgrass; conditions: scale 0 to 100 (0 no effect, 100 complete control)
# Method in brief: as §2
# [6] = system: ducksalad (Heteranthera limosa); assay: Test C flooded paddy test: ducksalad; conditions: scale 0 to 100 (0 no effect, 100 complete control)
# Method in brief: as §2
# [7] = system: foxtail, giant (giant foxtail, Setaria faberii); assay: Test A pre-/postemergence: foxtail, giant; conditions: for Foxtail, Giant plant response rating: Postemergence; for Plant response rating, Foxtail, Giant: Preemergence
# Method in brief: as §1
# rice (Oryza sativa) = assay: Test C flooded paddy test: rice; conditions: scale 0 to 100 (0 no effect, 100 complete control)
# Description: Plant species in the flooded paddy test consisted of rice (Oryza sativa), sedge, umbrella (small-flower umbrella sedge, Cyperus difformis), ducksalad (Heteranthera limosa) and barnyardgrass (Echinochloa crus-galli) grown to the 2-leaf stage for testing. At time of treatment, test pots were flooded to 3 cm above the soil surface, treated by application of test compounds directly to the paddy water, and then maintained at that water depth for the duration of the test.
# Treated plants and controls were maintained in a greenhouse for 13 to 15 days, after which time all species were compared to controls and visually evaluated. Plant response ratings, summarized in Table C, are based on a scale of 0 to 100 where 0 is no effect and 100 is complete control. A dash (-) response means no test result.
# corn (Zea mays) = assay: Test A pre-/postemergence: corn; conditions: for Corn plant response rating: Postemergence; for Plant response rating, Corn: Preemergence
# Method in brief: as §1
# [8] = system: velvetleaf (Abutilon theophrasti); assay: Test A pre-/postemergence: velvetleaf; conditions: for Velvetleaf plant response rating: Postemergence; for Plant response rating, Velvetleaf: Preemergence
# Method in brief: as §1
# [9] = system: pigweed (Amaranthus retroflexus); assay: Test A pre-/postemergence: pigweed; conditions: for Pigweed plant response rating: Postemergence; for Plant response rating, Pigweed: Preemergence
# Method in brief: as §1
# [10] = system: crabgrass, large (large crabgrass, Digitaria sanguinalis); assay: Test A pre-/postemergence: crabgrass, large; conditions: for Crabgrass, Large plant response rating: Postemergence; for Plant response rating, Crabgrass, Large: Preemergence
# Method in brief: as §1
# [11] = 125 g ai/ha, 0 to 100 scale, 0 is no effect, 100 is complete control
# [12] = 500 g ai/ha, visual rating on 0 to 100 scale (0 no effect, 100 complete control), approximately ten days
# [13] = 125 g ai/ha, 0 to 100 scale (0 no effect, 100 complete control)
# [14] = 500 g ai/ha, 0 to 100 scale, 0 is no effect, 100 is complete control
# [15] = Flood (flooded paddy test), 62 g ai/ha, visual rating after 13 to 15 days
# [16] = Flood (flooded paddy test), 125 g ai/ha, visual rating after 13 to 15 days
# [17] = Flood (flooded paddy test), 250 g ai/ha, visual rating after 13 to 15 days
smiles,measurement,setting,value
Cc1nn(-c2ccc(C(F)(F)F)cn2)nc1Cn1nc(C(F)(F)F)cc1C [Compound 21],Morningglory plant response rating,[1]; [11],20
same,Morningglory plant response rating,[1]; [12],40
same,"Plant response rating, Morningglory",[1]; [13],0
same,"Plant response rating, Morningglory",[1]; [14],0
same,"Plant response rating, Sedge, Umbrella",[2]; [15],0
same,"Plant response rating, Sedge, Umbrella",[2]; [16],0
same,"Plant response rating, Sedge, Umbrella",[2]; [17],0
same,"Plant response rating, Sedge, Umbrella","[2]; Flood, 31 g ai/ha",0
same,Wheat plant response rating,[3]; [11],0
same,Wheat plant response rating,[3]; [12],0
same,"Plant response rating, Wheat",[3]; [13],0
same,"Plant response rating, Wheat",[3]; [14],0
same,Barnyardgrass plant response rating,[4]; [11],0
same,Barnyardgrass plant response rating,[4]; [12],10
same,"Plant response rating, Barnyardgrass",[4]; [13],0
same,"Plant response rating, Barnyardgrass",[4]; [14],10
same,"Plant response rating, Barnyardgrass",[5]; [15],0
same,"Plant response rating, Barnyardgrass",[5]; [16],0
same,"Plant response rating, Barnyardgrass",[5]; [17],0
same,"Plant response rating, Barnyardgrass","[5]; Flood, 31 g ai/ha",0
same,"Plant response rating, Ducksalad",[6]; [15],0
same,"Plant response rating, Ducksalad",[6]; [16],0
same,"Plant response rating, Ducksalad",[6]; [17],0
same,"Plant response rating, Ducksalad","[6]; Flood, 31 g ai/ha",0
same,"Foxtail, Giant plant response rating",[7]; [11],0
same,"Foxtail, Giant plant response rating",[7]; [12],10
same,"Plant response rating, Foxtail, Giant",[7]; [13],0
same,"Plant response rating, Foxtail, Giant",[7]; [14],30
same,"Plant response rating, Rice",rice (Oryza sativa); [15],0
same,"Plant response rating, Rice",rice (Oryza sativa); [16],0
same,"Plant response rating, Rice",rice (Oryza sativa); [17],0
same,"Plant response rating, Rice","rice (Oryza sativa); Flood, 31 g ai/ha",0
same,Corn plant response rating,corn (Zea mays); [11],0
same,Corn plant response rating,corn (Zea mays); [12],10
same,"Plant response rating, Corn",corn (Zea mays); [13],0
same,"Plant response rating, Corn",corn (Zea mays); [14],0
same,Velvetleaf plant response rating,[8]; [11],10
same,Velvetleaf plant response rating,[8]; [12],20
same,"Plant response rating, Velvetleaf",[8]; [13],0
same,"Plant response rating, Velvetleaf",[8]; [14],0
same,Pigweed plant response rating,[9]; [11],60
same,Pigweed plant response rating,[9]; [12],80
same,"Plant response rating, Pigweed",[9]; [13],0
same,"Plant response rating, Pigweed",[9]; [14],50
same,"Crabgrass, Large plant response rating",[10]; [11],20
same,"Crabgrass, Large plant response rating",[10]; [12],40
same,"Plant response rating, Crabgrass, Large",[10]; [13],0
same,"Plant response rating, Crabgrass, Large",[10]; [14],60
Cc1nn(-c2ccncc2)nc1C(=O)c1cccc(C(F)(F)F)c1 [Compound 22],Morningglory plant response rating,[1]; [11],10
same,Morningglory plant response rating,[1]; [12],20
same,"Plant response rating, Morningglory",[1]; [13],0
same,"Plant response rating, Morningglory",[1]; [14],0
same,"Plant response rating, Sedge, Umbrella",[2]; [15],0
same,"Plant response rating, Sedge, Umbrella",[2]; [16],0
same,"Plant response rating, Sedge, Umbrella",[2]; [17],0
same,"Plant response rating, Sedge, Umbrella","[2]; Flood, 31 g ai/ha",0
same,Wheat plant response rating,[3]; [11],10
same,"Plant response rating, Wheat",[3]; [13],0
same,"Plant response rating, Wheat",[3]; [14],0
same,Barnyardgrass plant response rating,[4]; [11],10
same,Barnyardgrass plant response rating,[4]; [12],20
same,"Plant response rating, Barnyardgrass",[4]; [13],0
same,"Plant response rating, Barnyardgrass",[4]; [14],10
same,"Plant response rating, Barnyardgrass",[5]; [15],0
same,"Plant response rating, Barnyardgrass",[5]; [16],0
same,"Plant response rating, Barnyardgrass",[5]; [17],0
same,"Plant response rating, Barnyardgrass","[5]; Flood, 31 g ai/ha",0
same,"Plant response rating, Ducksalad",[6]; [15],0
same,"Plant response rating, Ducksalad",[6]; [16],0
same,"Plant response rating, Ducksalad",[6]; [17],0
same,"Plant response rating, Ducksalad","[6]; Flood, 31 g ai/ha",0
same,"Foxtail, Giant plant response rating",[7]; [11],20
same,"Foxtail, Giant plant response rating",[7]; [12],50
same,"Plant response rating, Foxtail, Giant",[7]; [13],20
same,"Plant response rating, Foxtail, Giant",[7]; [14],80
same,"Plant response rating, Rice",rice (Oryza sativa); [15],0
same,"Plant response rating, Rice",rice (Oryza sativa); [16],0
same,"Plant response rating, Rice",rice (Oryza sativa); [17],0
same,"Plant response rating, Rice","rice (Oryza sativa); Flood, 31 g ai/ha",0
same,Corn plant response rating,corn (Zea mays); [11],10
same,Corn plant response rating,corn (Zea mays); [12],20
same,"Plant response rating, Corn",corn (Zea mays); [13],0
same,"Plant response rating, Corn",corn (Zea mays); [14],0
same,Velvetleaf plant response rating,[8]; [11],10
same,Velvetleaf plant response rating,[8]; [12],30
same,"Plant response rating, Velvetleaf",[8]; [13],0
same,"Plant response rating, Velvetleaf",[8]; [14],0
same,Pigweed plant response rating,[9]; [11],50
same,Pigweed plant response rating,[9]; [12],80
same,"Plant response rating, Pigweed",[9]; [13],10
same,"Plant response rating, Pigweed",[9]; [14],10
same,"Crabgrass, Large plant response rating",[10]; [11],40
same,"Crabgrass, Large plant response rating",[10]; [12],60
same,"Plant response rating, Crabgrass, Large",[10]; [13],10
same,"Plant response rating, Crabgrass, Large",[10]; [14],40
COc1nn(-c2ccc(C(F)(F)F)cc2)nc1Cc1cccc(C(F)(F)F)c1 [Compound 29],Morningglory plant response rating,[1]; [11],80
same,Morningglory plant response rating,[1]; [12],100
same,"Plant response rating, Morningglory",[1]; [13],0
same,"Plant response rating, Morningglory",[1]; [14],10
same,"Plant response rating, Sedge, Umbrella",[2]; [15],60
same,"Plant response rating, Sedge, Umbrella",[2]; [16],70
same,"Plant response rating, Sedge, Umbrella",[2]; [17],75
same,"Plant response rating, Sedge, Umbrella","[2]; Flood, 31 g ai/ha",50
same,Wheat plant response rating,[3]; [11],0
same,Wheat plant response rating,[3]; [12],30
same,"Plant response rating, Wheat",[3]; [13],0
same,"Plant response rating, Wheat",[3]; [14],0
same,Barnyardgrass plant response rating,[4]; [11],20
same,Barnyardgrass plant response rating,[4]; [12],40
same,"Plant response rating, Barnyardgrass",[4]; [13],10
same,"Plant response rating, Barnyardgrass",[4]; [14],50
same,"Plant response rating, Barnyardgrass",[5]; [15],0
same,"Plant response rating, Barnyardgrass",[5]; [16],0
same,"Plant response rating, Barnyardgrass",[5]; [17],20
same,"Plant response rating, Barnyardgrass","[5]; Flood, 31 g ai/ha",0
same,"Plant response rating, Ducksalad",[6]; [15],0
same,"Plant response rating, Ducksalad",[6]; [16],0
same,"Plant response rating, Ducksalad",[6]; [17],0
same,"Plant response rating, Ducksalad","[6]; Flood, 31 g ai/ha",0
same,"Foxtail, Giant plant response rating",[7]; [11],60
same,"Foxtail, Giant plant response rating",[7]; [12],90
same,"Plant response rating, Foxtail, Giant",[7]; [13],80
same,"Plant response rating, Foxtail, Giant",[7]; [14],100
same,"Plant response rating, Rice",rice (Oryza sativa); [15],0
same,"Plant response rating, Rice",rice (Oryza sativa); [16],0
same,"Plant response rating, Rice",rice (Oryza sativa); [17],0
same,"Plant response rating, Rice","rice (Oryza sativa); Flood, 31 g ai/ha",0
same,Corn plant response rating,corn (Zea mays); [11],20
same,Corn plant response rating,corn (Zea mays); [12],20
same,"Plant response rating, Corn",corn (Zea mays); [13],0
same,"Plant response rating, Corn",corn (Zea mays); [14],0
same,Velvetleaf plant response rating,[8]; [11],60
same,Velvetleaf plant response rating,[8]; [12],80
same,"Plant response rating, Velvetleaf",[8]; [13],0
same,"Plant response rating, Velvetleaf",[8]; [14],50
same,Pigweed plant response rating,[9]; [11],100
same,Pigweed plant response rating,[9]; [12],100
same,"Plant response rating, Pigweed",[9]; [13],50
same,"Plant response rating, Pigweed",[9]; [14],90
same,"Crabgrass, Large plant response rating",[10]; [11],90
same,"Crabgrass, Large plant response rating",[10]; [12],90
same,"Plant response rating, Crabgrass, Large",[10]; [13],90
same,"Plant response rating, Crabgrass, Large",[10]; [14],100
